Reference: publication PMC12251161, “Crucian Carp-Derived ACE-Inhibitory Peptides with In Vivo Antihypertensive Activity: Insights into Bioactivity, Mechanism, and Safety” (Molecules, 2025)
pIC50: −log10 of the molar value. Where a SMILES comes first, the peptide text is derived from it. [ ]: non-standard residue; d: D form. Hyp = O=C(O)[C@@H]1C[C@@H](O)CN1

What was measured:
[1] = molecular target: T1, ACE (from rabbit lung, EC 3.4.15.1) (Oryctolagus cuniculus, UniProt P12822); assay: ACE-inhibitory activity assay (FAPGG substrate, spectrophotometric); format: biochemical; conditions: synthetic peptides; FAPGG 1 mmol/L, 80 mM HEPES, 0.3 M NaCl, pH 8.3, 37 °C; triplicate, sigmoidal dose–response fit; read-out: IC₅₀ ACE inhibition
T1 construct: ACE (from rabbit lung, EC 3.4.15.1); purchased Sigma-Aldrich Co. (St. Louis, MO, USA); host or cells: rabbit lung tissue
T1 sequence (P12822 34-1310): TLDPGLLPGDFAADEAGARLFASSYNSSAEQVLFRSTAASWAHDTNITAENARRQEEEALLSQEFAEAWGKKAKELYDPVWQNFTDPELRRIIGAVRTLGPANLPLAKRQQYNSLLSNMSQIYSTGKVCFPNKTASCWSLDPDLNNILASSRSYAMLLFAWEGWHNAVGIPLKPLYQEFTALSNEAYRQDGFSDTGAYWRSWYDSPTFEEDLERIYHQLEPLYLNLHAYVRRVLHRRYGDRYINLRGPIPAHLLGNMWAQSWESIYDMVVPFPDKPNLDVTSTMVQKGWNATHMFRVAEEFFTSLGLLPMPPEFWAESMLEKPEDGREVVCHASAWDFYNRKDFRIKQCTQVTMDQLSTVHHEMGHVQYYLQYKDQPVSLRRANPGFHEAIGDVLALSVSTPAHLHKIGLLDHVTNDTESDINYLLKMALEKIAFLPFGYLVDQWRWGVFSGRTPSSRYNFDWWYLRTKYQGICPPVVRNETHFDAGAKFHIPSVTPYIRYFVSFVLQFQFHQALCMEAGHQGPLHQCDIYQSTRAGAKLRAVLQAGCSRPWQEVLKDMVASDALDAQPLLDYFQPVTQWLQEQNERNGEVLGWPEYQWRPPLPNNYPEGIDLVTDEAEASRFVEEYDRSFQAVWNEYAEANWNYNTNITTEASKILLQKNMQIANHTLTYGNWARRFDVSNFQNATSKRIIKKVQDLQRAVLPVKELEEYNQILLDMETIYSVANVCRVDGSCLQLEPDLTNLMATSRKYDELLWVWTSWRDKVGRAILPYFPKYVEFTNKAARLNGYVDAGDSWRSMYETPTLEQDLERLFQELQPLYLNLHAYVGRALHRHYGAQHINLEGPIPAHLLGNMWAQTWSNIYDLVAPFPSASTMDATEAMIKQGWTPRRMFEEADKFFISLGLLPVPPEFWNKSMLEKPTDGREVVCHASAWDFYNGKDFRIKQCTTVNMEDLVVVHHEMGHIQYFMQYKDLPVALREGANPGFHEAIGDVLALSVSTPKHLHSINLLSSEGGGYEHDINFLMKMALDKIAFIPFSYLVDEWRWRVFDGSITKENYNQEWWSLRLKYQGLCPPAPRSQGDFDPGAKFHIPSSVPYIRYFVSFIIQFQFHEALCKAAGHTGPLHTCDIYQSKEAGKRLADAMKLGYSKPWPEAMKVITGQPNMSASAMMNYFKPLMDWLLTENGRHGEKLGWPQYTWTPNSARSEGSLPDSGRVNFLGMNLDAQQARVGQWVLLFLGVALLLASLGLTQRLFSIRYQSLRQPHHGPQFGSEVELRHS
Procedure: All other chemicals were of analytical grade.
All assays were conducted in triplicate.

BALB/c mice [2] = assay: 90-day oral safety: mortality, clinical signs, body weight; format: in vivo; conditions: 50 mg/kg/day oral, 90 days, male and female
Procedure: (§1) A total of 40 healthy 7-week-old BALB/c mice (20 males and 20 non-pregnant females), with body weights within ±15% of the cohort mean, were obtained from Yangzhou University. All animals underwent a 7-day acclimation period under specific pathogen-free conditions prior to the experiment. Mice were housed under standard laboratory conditions: ambient temperature of 20–26 °C, relative humidity of 40–70%, and a 12 h light/dark cycle. General appearance, behavior, food intake, and body weight were monitored daily throughout the study. To evaluate the potential subchronic toxicity of the synthetic GA-Hyp-GAR peptide, a 90-day oral administration study was conducted. Mice were randomly divided into two groups (n = 10 males and 10 females per group): a normal group and a GA-Hyp-GAR-treated group receiving 50 mg/kg/day via daily intragastric gavage. The normal group received an equivalent volume of ultrapure water via the same route. After 90 consecutive days of treatment, all animals were anesthetized and euthanized 24 h after the final dose. […] Organ coefficients (organ weight/body weight × 100%) were calculated to assess potential physiological or pathological effects associated with long-term GA-Hyp-GAR exposure. […]

BALB/c mice [3] = assay: 90-day oral safety: hematological parameters; format: in vivo; design: Red Cell Distribution Width—CV: unit not given here; conditions: 50 mg/kg/day oral, 90 days
Procedure: (§2) A total of 40 healthy 7-week-old BALB/c mice (20 males and 20 non-pregnant females), with body weights within ±15% of the cohort mean, were obtained from Yangzhou University. All animals underwent a 7-day acclimation period under specific pathogen-free conditions prior to the experiment. Mice were housed under standard laboratory conditions: ambient temperature of 20–26 °C, relative humidity of 40–70%, and a 12 h light/dark cycle. General appearance, behavior, food intake, and body weight were monitored daily throughout the study. To evaluate the potential subchronic toxicity of the synthetic GA-Hyp-GAR peptide, a 90-day oral administration study was conducted. Mice were randomly divided into two groups (n = 10 males and 10 females per group): a normal group and a GA-Hyp-GAR-treated group receiving 50 mg/kg/day via daily intragastric gavage. The normal group received an equivalent volume of ultrapure water via the same route. After 90 consecutive days of treatment, all animals were anesthetized and euthanized 24 h after the final dose. Blood samples were collected via cardiac puncture for hematological and serum biochemical analyses, performed using a Hitachi 3500 fully automated biochemical analyzer (Hitachi High-Tech Science Corp., Tokyo, Japan). Major organs—including the heart, liver, spleen, lungs, and kidneys—were excised, blotted dry, and weighed. Organ coefficients (organ weight/body weight × 100%) were calculated to assess potential physiological or pathological effects associated with long-term GA-Hyp-GAR exposure. Tissues were fixed in 4% paraformaldehyde, embedded in paraffin, sectioned, and stained with hematoxylin and eosin for histopathological evaluation. All animal experiments were conducted in accordance with the ethical guidelines of the Animal Ethics Committee of Nanjing Agricultural University, which approved the study protocol (Protocol No. NJAU-20250120-35).

BALB/c mice [4] = assay: 90-day oral safety: serum biochemical parameters; format: in vivo; conditions: 50 mg/kg/day oral, 90 days
Procedure: as §2

BALB/c mice [5] = assay: 90-day oral safety: organ coefficients; format: in vivo; conditions: 50 mg/kg/day oral, 90 days; liver, kidneys, spleen, lungs, heart
Procedure: as §1

BALB/c mice [6] = assay: 90-day oral safety: histopathology (H&E); format: in vivo; conditions: 50 mg/kg/day oral, 90 days, liver, kidneys, spleen, lungs, heart
Procedure: as §1

angiotensin II = assay: Angiotensin II level in SHRs (ELISA); format: in vivo, spontaneously hypertensive rats (SHRs); conditions: captopril 12 mg/kg oral, n = 6
Excerpt: (§3) Formic acid (≥99%, LC-MS grade), 4-(2-hydroxyethyl) piperazine-1-ethanesulfonic acid (HEPES, ≥99%, ACS grade), ACE (from rabbit lung, EC 3.4.15.1), acetonitrile (ACN, ≥99%, LC-MS grade), and N-[3-(2-Furyl) acryloyl]-Phe-Gly-Gly (FAPGG, ≥99%, ACS grade) were obtained from Sigma-Aldrich Co. (St. Louis, MO, USA). An enzyme-linked immunosorbent assay (ELISA) kit for AngII (catalog no. D731188-0048) was purchased from Sangon Biotech (Shanghai, China). ELISA kits for endothelial nitric oxide synthase (eNOS, catalog no. JL21190-48T) and BK (catalog no. JL21045-48T) were obtained from JONLN Biotechnology Co., Ltd. (Shanghai, China). Nitric Oxide (NO) assay kit (catalog no. A013-2-1) was purchased from Nanjing Jiancheng Bioengineering Institute (Nanjing, Jiangsu, China). All other chemicals were of analytical grade. […]
(§4) Systolic blood pressure (SBP) was measured using a non-invasive blood pressure monitoring system (BP-2000, Softron Co., Tokyo, Japan) at baseline (0 h) and at 2, 4, 6, 8, and 12 h after administration to evaluate the antihypertensive effects of the test peptides, following the method described by Kurita. The levels of AngII, eNOS, and BK were measured using commercial ELISA kits, while NO levels were determined using the Microwell plate method with a specialized assay kit.

[7] = test system: endothelial nitric oxide synthase (eNOS); assay: Endothelial nitric oxide synthase level in SHRs (ELISA); format: in vivo, spontaneously hypertensive rats (SHRs); conditions: oral, vs model group
Excerpt: as §3, §4

nitric oxide (NO) = assay: Nitric oxide level in SHRs (assay kit); format: in vivo, spontaneously hypertensive rats (SHRs); conditions: oral, vs model group
Excerpt: as §3, §4

C[C@H](NC(=O)CNC(=O)[C@@H]1C[C@@H](O)CN1C(=O)[C@H](C)NC(=O)CN)C(=O)N[C@@H](CCCNC(=N)N)C(=O)O [GA-Hyp-GAR, Gly-Ala-hydroxyproline-Gly-Ala-Arg] (H-GA[Hyp]GAR-OH)
pIC50 [1]: 5.40 | body weight (BALB/c mice [2]): Body weight increased steadily in all groups over the study period | mortality and signs of toxicity (BALB/c mice [2]): no mortality or signs of toxicity were observed | hematological parameters in words (BALB/c mice [3]; vs control): no statistically significant differences (p > 0.05) between the treated and control groups in key hematological parameters | Plateletcrit (BALB/c mice [3]; normal 0.16 ± 0.27, p >0.9999): 0.16 ± 0.26% | Mean Platelet Volume (BALB/c mice [3]; normal 2.05 ± 3.45, p 0.9798): 2.09 ± 3.52 fL | Platelet Distribution Width (BALB/c mice [3]; normal 2.91 ± 4.95, p 0.9364): 3.09 ± 5.00 fL | Platelet Large Cell Ratio (BALB/c mice [3]; normal 3.62 ± 6.29, p 0.9916): 3.65 ± 6.26% | White Blood Cells (BALB/c mice [3]; normal 4.28 ± 1.72, p 0.3610): 3.66 ± 1.19 ×10⁹/L | Red Blood Cells (BALB/c mice [3]; normal 10.71 ± 0.83, p 0.2451): 11.13 ± 0.73 ×10^12/L | Mean Corpuscular Hemoglobin (BALB/c mice [3]; normal 15.65 ± 0.32, p 0.7101): 15.70 ± 0.27 pg | Red Cell Distribution Width—CV (BALB/c mice [3]; normal 26.58 ± 1.94, p 0.4260): 25.95 ± 1.49 | Red Cell Distribution Width—SD (BALB/c mice [3]; normal 32.81 ± 11.68, p 0.8517): 31.99 ± 7.11 fL | Hemoglobin (BALB/c mice [3]; normal 167.60 ± 13.10, p 0.1978): 174.70 ± 10.50 g/L | Mean Corpuscular Hemoglobin Concentration (BALB/c mice [3]; normal 341.80 ± 15.10, p 0.7101): 355.90 ± 5.50 g/L | Platelet Count (BALB/c mice [3]; normal 675.50 ± 200.50, p 0.9198): 683.40 ± 140.00 ×10⁹/L | serum biochemical markers of hepatic and renal function in words (BALB/c mice [4]; vs normal group): no significant differences (p > 0.05) between the treated and normal groups in markers of hepatic function | Triglycerides (BALB/c mice [4]; normal 1.94 ± 0.40, p 0.0526): 2.35 ± 0.48 mmol/L | Total Cholesterol (BALB/c mice [4]; normal 2.47 ± 0.23, p 0.1796): 2.32 ± 0.25 mmol/L | Aspartate Aminotransferase (BALB/c mice [4]; normal 2.48 ± 1.03, p 0.9294): 2.44 ± 0.96 µkat/L | Alkaline Phosphatase (BALB/c mice [4]; normal 3.32 ± 0.65, p 0.2065): 2.99 ± 0.46 µkat/L | Glucose (BALB/c mice [4]; normal 5.69 ± 3.38, p 0.1654): 7.79 ± 3.11 mmol/L | Blood Urea Nitrogen (BALB/c mice [4]; normal 7.81 ± 1.53, p 0.6237): 8.13 ± 1.33 mmol/L | Creatinine (BALB/c mice [4]; normal 14.70 ± 5.80, p 0.2390): 18.13 ± 6.76 µmol/L | Albumin (BALB/c mice [4]; normal 35.24 ± 1.32, p 0.5021): 35.60 ± 1.01 g/L | Total Protein (BALB/c mice [4]; normal 58.21 ± 3.77, p 0.9711): 58.16 ± 2.09 g/L | Alanine Aminotransferase (BALB/c mice [4]; normal 684.30 ± 288.39, p 0.8986): 701.81 ± 316.56 nkat/L | organ coefficients (BALB/c mice [5]): organ coefficients did not differ significantly between the GA-Hyp-GAR-treated and normal groups (p > 0.05) | histopathology of major organs (BALB/c mice [6]): no observable pathological changes in any of the examined organs

C[C@H](NC(=O)CNC(=O)[C@@H]1C[C@@H](O)CN1)C(=O)N[C@@H](CCCNC(=N)N)C(=O)O [Hyp-GAR, Hydroxyproline-Gly-Ala-Arg] (H-[Hyp]GAR-OH)
pIC50 [1]: 4.91

C[C@H](CS)C(=O)N1CCC[C@H]1C(=O)O [captopril]
AngII concentration (angiotensin II): 220.16 ± 31.67 pg/mL | eNOS levels in words [7]: significantly restored both eNOS and NO levels | NO levels in words (nitric oxide (NO)): significantly restored both eNOS and NO levels
